Laboratory results taken from patent US20120220562A1, “Anti-Viral Compounds” (ABBOTT LABAORATORIES, priority 2011, published 2012).

Each molecule was assayed on HCV 1b-Con1 replicon (assay: HCV 1b-Con1 replicon assay in the presence of 5% FBS). Conditions: Hepatitis C virus.
Format: cell-based
`COC(=O)N[C@H](C(=O)N1CCC[C@H]1c1nc2cc([C@H]3CC[C@H](c4ccc5[nH]c([C@@H]6CCCN6C(=O)[C@@H](NC(=O)OC)C(C)C)nc5c4)N3c3ccc(OCC4COCO4)cc3)ccc2[nH]1)C(C)C` (stereo partly drawn) [Example 2.4, methyl {(2S)-1-[(2S)-2-{5-[(2R,5R)-1-[4-(1,3-dioxolan-4-ylmethoxy)phenyl]-5-{2-[(2S)-1-{(2S)-2-[(methoxycarbonyl)amino]-3-methylbutanoyl}pyrrolidin-2-yl]-1H-benzimidazol-5-yl}pyrrolidin-2-yl]-1H-benzimidazol-2-yl}pyrrolidin-1-yl]-3-methyl-1-oxobutan-2-yl}carbamate] was tested, and the EC50 was < 0.1 nM.
`COC(=O)N[C@H](C(=O)N1CCC[C@H]1c1nc2cc([C@H]3CC[C@H](c4ccc5[nH]c([C@@H]6CCCN6C(=O)[C@@H](NC(=O)OC)C(C)C)nc5c4)N3c3ccc(N4CCCCC4)c(C)c3)ccc2[nH]1)C(C)C` [Example 4.2, methyl {(2S)-1-[(2S)-2-(5-{(2R,5R)-5-{2-[(2S)-1-{(2S)-2-[(methoxycarbonyl)amino]-3-methylbutanoyl}pyrrolidin-2-yl]-1H-benzimidazol-5-yl}-1-[3-methyl-4-(piperidin-1-yl)phenyl]pyrrolidin-2-yl}-1H-benzimidazol-2-yl)pyrrolidin-1-yl]-3-methyl-1-oxobutan-2-yl}carbamate] was tested, and the EC50 was < 0.1 nM.
With `COC(=O)N[C@H](C(=O)N1CCC[C@H]1c1nc2cc([C@H]3CC[C@H](c4ccc5[nH]c([C@@H]6CCCN6C(=O)[C@@H](NC(=O)OC)C6CCCCC6)nc5c4)N3c3cc(F)c(N4CCCCC4)c(F)c3)ccc2[nH]1)C1CCCCC1` [Example 5.6, dimethyl ({(2R,5R)-1-[3,5-difluoro-4-(piperidin-1-yl)phenyl]pyrrolidine-2,5-diyl}bis{1H-benzimidazole-5,2-diyl(2S)pyrrolidine-2,1-diyl [(1S)-1-cyclohexyl-2-oxoethane-2,1-diyl]})biscarbamate] the EC50 was < 0.1 nM.
For `COC(=O)N[C@H](C(=O)N1CCC[C@H]1c1nc2cc([C@H]3CC[C@H](c4ccc5[nH]c([C@@H]6CCCN6C(=O)[C@@H](NC(=O)OC)C(C)C)nc5c4)N3c3ccc(-c4ncco4)cc3)ccc2[nH]1)C(C)C` [Example 2.1, methyl {(2S)-1-[(2S)-2-(5-{(2R,5R)-5-{2-[(2S)-1-{(2S)-2-[(methoxycarbonyl)amino]-3-methylbutanoyl}pyrrolidin-2-yl]-1H-benzimidazol-5-yl}-1-[4-(1,3-oxazol-2-yl)phenyl]pyrrolidin-2-yl}-1H-benzimidazol-2-yl)pyrrolidin-1-yl]-3-methyl-1-oxobutan-2-yl}carbamate], the EC50 was < 0.1 nM.
In the case of `COC(=O)N[C@H](C(=O)N1CCC[C@H]1c1nc2ccc([C@H]3CC[C@H](c4ccc5nc([C@@H]6CCCN6C(=O)[C@@H](NC(=O)OC)C(C)C)[nH]c5c4)N3c3cc(F)c(N4CCC(C)CC4)c(F)c3)cc2[nH]1)C(C)C` [Example 2.9, methyl {(2S)-1-[(2S)-2-{6-[(2R,5R)-1-[3,5-difluoro-4-(4-methylpiperidin-1-yl)phenyl]-5-{2-[(2S)-1-{(2S)-2-[(methoxycarbonyl)amino]-3-methylbutanoyl}pyrrolidin-2-yl]-1H-benzimidazol-6-yl}pyrrolidin-2-yl]-1H-benzimidazol-2-yl}pyrrolidin-1-yl]-3-methyl-1-oxobutan-2-yl}carbamate], the EC50 is reported as < 0.1 nM.
For `COC(=O)N[C@H](C(=O)N1CCC[C@H]1c1nc2cc(C3CCC(c4cc5nc([C@@H]6CCCN6C(=O)[C@@H](NC(=O)OC)C(C)C)[nH]c5cc4F)N3c3cc(F)c(N4C[C@@H](C)O[C@@H](C)C4)c(F)c3)c(F)cc2[nH]1)C(C)C` (stereo partly drawn) [Example 4.51], the EC50 was < 0.1 nM.
In the case of `COC(=O)N[C@H](C(=O)N1CCC[C@H]1c1nc2cc([C@H]3CC[C@H](c4ccc5[nH]c([C@@H]6CCCN6C(=O)[C@@H](NC(=O)OC)[C@@H](C)OC)nc5c4)N3c3cc(F)c(N4CCC(c5ccccc5)CC4)c(F)c3)ccc2[nH]1)[C@@H](C)OC` [Example 5.3, methyl {(2S,3R)-1-[(2S)-2-{5-[(2R,5R)-1-[3,5-difluoro-4-(4-phenylpiperidin-1-yl)phenyl]-5-(2-{(2S)-1-[N-(methoxycarbonyl)-O-methyl-L-threonyl]pyrrolidin-2-yl}-1H-benzimidazol-5-yl)pyrrolidin-2-yl]-1H-benzimidazol-2-yl}pyrrolidin-1-yl]-3-methoxy-1-oxobutan-2-yl}carbamate], the EC50 is reported as < 0.1 nM.
For `COC(=O)N[C@H](C(=O)N1CCC[C@H]1c1nc2cc([C@H]3CC[C@H](c4ccc5nc([C@@H]6CCCN6C(=O)[C@@H](NC(=O)OC)C(C)C)[nH]c5c4)N3c3ccc(C4CCCCC4)c(F)c3)ccc2[nH]1)C(C)C` [Example 4.8, methyl {(2S)-1-[(2S)-2-{5-[(2R,5R)-1-(4-cyclohexyl-3-fluorophenyl)-5-{2-[(2S)-1-{(2S)-2-[(methoxycarbonyl)amino]-3-methylbutanoyl}pyrrolidin-2-yl]-1H-benzimidazol-6-yl}pyrrolidin-2-yl]-1H-benzimidazol-2-yl}pyrrolidin-1-yl]-3-methyl-1-oxobutan-2-yl}carbamate], the EC50 was < 0.1 nM.
In the case of `COC(=O)N[C@H](C(=O)N1CCC[C@H]1c1nc2ccc([C@H]3CC[C@H](c4ccc5nc([C@@H]6CCCN6C(=O)[C@@H](NC(=O)OC)C(C)C)[nH]c5c4)N3c3cc(F)c(N4CCC(c5cccc6ccccc56)CC4)c(F)c3)cc2[nH]1)C(C)C` [Example 2.15, methyl {(2S)-1-[(2S)-2-{5-[(2R,5R)-1-{3,5-difluoro-4-[4-(1-naphthyl)piperidin-1-yl]phenyl}-5-{2-[(2S)-1-{(2S)-2-[(methoxycarbonyl)amino]-3-methylbutanoyl}pyrrolidin-2-yl]-1H-benzimidazol-5-yl}pyrrolidin-2-yl]-1H-benzimidazol-2-yl}pyrrolidin-1-yl]-3-methyl-1-oxobutan-2-yl}carbamate], the EC50 is reported as < 0.1 nM.
`COC(=O)N[C@H](C(=O)N1CCC[C@H]1c1nc2cc([C@@H]3CC[C@@H](c4ccc5[nH]c([C@@H]6CCCN6C(=O)[C@@H](NC(=O)OC)[C@@H](C)OC)nc5c4)N3c3ccc(C4CC4)cc3F)ccc2[nH]1)[C@@H](C)OC` [Example 3.13, methyl {(2S,3R)-1-[(2S)-2-{5-[(2S,5S)-1-(4-cyclopropyl-2-fluorophenyl)-5-(2-{(2S)-1-[N-(methoxycarbonyl)-O-methyl-L-threonyl]pyrrolidin-2-yl}-1H-benzimidazol-5-yl)pyrrolidin-2-yl]-1H-benzimidazol-2-yl}pyrrolidin-1-yl]-3-methoxy-1-oxobutan-2-yl}carbamate] was tested, and the EC50 was < 0.1 nM.
In the case of `CCC(CC)C(NC(=O)OC)C(=O)N1CCC[C@H]1c1nc2cc([C@H]3CC[C@H](c4ccc5[nH]c([C@@H]6CCCN6C(=O)C(NC(=O)OC)C(CC)CC)nc5c4)N3c3cc(F)c(N4CCC(c5ccccc5)CC4)c(F)c3)ccc2[nH]1` (stereo partly drawn) [Example 3.29, methyl {1-[(2S)-2-{5-[(2R,5R)-1-[3,5-difluoro-4-(4-phenylpiperidin-1-yl)phenyl]-5-{2-[(2S)-1-{3-ethyl-2-[(methoxycarbonyl)amino]pentanoyl}pyrrolidin-2-yl]-1H-benzimidazol-5-yl}pyrrolidin-2-yl]-1H-benzimidazol-2-yl}pyrrolidin-1-yl]-3-ethyl-1-oxopentan-2-yl}carbamate], the EC50 is reported as < 0.1 nM.
For `COC(=O)N[C@H](C(=O)N1CCC[C@H]1c1nc2cc([C@H]3CC[C@H](c4ccc5[nH]c([C@@H]6CCCN6C(=O)[C@@H](NC(=O)OC)C(C)C)nc5c4)N3c3cc(F)c(N4CCN(c5ccc(C(F)(F)F)cc5)CC4)c(F)c3)ccc2[nH]1)C(C)C` [Example 2.17, methyl {(2S)-1-[(2S)-2-{5-[(2R,5R)-1-(3,5-difluoro-4-{4-[4-(trifluoromethyl)phenyl]piperazin-1-yl}phenyl)-5-{2-[(2S)-1-(2S)-2-[(methoxycarbonyl)amino]-3-methylbutanoylpyrrolidin-2-yl]-1H-benzimidazol-5-yl}pyrrolidin-2-yl]-1H-benzimidazol-2-yl}pyrrolidin-1-yl]-3-methyl-1-oxobutan-2-yl}carbamate], the EC50 was < 0.1 nM.
In the case of `CC(C)(C)OC(=O)NCC(=O)N1CCC[C@H]1c1nc2cc([C@@H]3CC[C@@H](c4ccc5[nH]c([C@@H]6CCCN6C(=O)CNC(=O)OC(C)(C)C)nc5c4)N3c3ccc(N4CCCCC4)c(F)c3)ccc2[nH]1` [Example 3.14, tert-butyl {2-[(2S)-2-(5-{(2S,5S)-5-{2-[(2S)-1-{[(tert-butoxycarbonyl)amino]acetyl}pyrrolidin-2-yl]-1H-benzimidazol-5-yl}-[3-fluoro-4-(piperidin-1-yl)phenyl]pyrrolidin-2-yl}-1H-benzimidazol-2-yl)pyrrolidin-1-yl]-2-oxoethyl}carbamate], the EC50 is reported as > 10 nM.
`COC(=O)N[C@H](C(=O)N1C[C@@H](F)C[C@H]1c1nc2cc([C@H]3CC[C@H](c4ccc5[nH]c([C@@H]6C[C@H](F)CN6C(=O)[C@@H](NC(=O)OC)C(C)C)nc5c4)N3c3cc(F)c(N4CCCCC4)c(F)c3)ccc2[nH]1)C(C)C` [Example 3.8, methyl {(2S)-1-[(2S,4S)-2-{5-[(2R,5R)-1-[3,5-difluoro-4-(piperidin-1-yl)phenyl]-5-{2-[(2S,4S)-4-fluoro-1-{(2S)-2-[(methoxycarbonyl)amino]-3-methylbutanoyl}pyrrolidin-2-yl]-1H-benzimidazol-5-yl}pyrrolidin-2-yl]-1H-benzimidazol-2-yl}-4-fluoropyrrolidin-1-yl]-3-methyl-1-oxobutan-2-yl}carbamate] was tested, and the EC50 was < 0.1 nM.
With `COC(=O)N[C@H](C(=O)N1CCC[C@H]1c1nc2cc([C@H]3CC[C@H](c4ccc5[nH]c([C@@H]6CCCN6C(=O)[C@@H](NC(=O)OC)C(C)C)nc5c4)N3c3cc(F)c(N4CC=C(c5ccccc5)CC4)c(F)c3)ccc2[nH]1)C(C)C` [Example 5.15, methyl {(2S)-1-[(2S)-2-{5-[(2R,5R)-1-[3,5-difluoro-4-(4-phenyl-3,6-dihydropyridin-1(2H)-yl)phenyl]-5-{2-[(2S)-1-{(2S)-2-[(methoxycarbonyl)amino]-3-methylbutanoyl}pyrrolidin-2-yl]-1H-benzimidazol-5-yl}pyrrolidin-2-yl]-1H-benzimidazol-2-yl}pyrrolidin-1-yl]-3-methyl-1-oxobutan-2-yl}carbamate] the EC50 was < 0.1 nM.
